Tested on: 377384-186-R-J1-PDC complex spheroid viability
Test: Anticancer human tumor 377384-186-R-J1-PDC patient-derived pancreatic carcinoma cell line growth inhibition [CLK]
Conditions: for IC50: curve of first compound; for viability, T/C: stronger effect = lower value
Procedure, shortened: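 Patient-derived tumor cells grown as complex spheroids with HUVEC endothelial cells and mesenchymal stem cells, treated with drug combinations. Concentrations descend in half-log steps from near clinical Cmax, or from 10 microM if Cmax unknown.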

[1] = second compound 0.0316 µM, first compound 0.0316 µM
[2] = second compound 0.0316 µM, first compound 0.1 µM
[3] = second compound 0.1 µM, first compound 0.0316 µM
[4] = second compound 0.1 µM, first compound 0.1 µM
[5] = second compound 0.316 µM, first compound 0.0316 µM
[6] = second compound 0.316 µM, first compound 0.1 µM
[7] = second compound 1 µM, first compound 0.0316 µM
[8] = second compound 1 µM, first compound 0.1 µM
[9] = second compound 3.16 µM, first compound 0.0316 µM
[10] = second compound 3.16 µM, first compound 0.1 µM
[11] = second compound 10 µM, first compound 0.0316 µM
[12] = second compound 10 µM, first compound 0.1 µM
[13] = second compound 0.0316 µM, first compound 0.316 µM
[14] = second compound 0.0316 µM, first compound 1 µM
[15] = second compound 0.0316 µM, first compound 3.16 µM
[16] = second compound 0.0316 µM, first compound 10 µM
[17] = second compound 0.1 µM, first compound 0.316 µM
[18] = second compound 0.1 µM, first compound 1 µM
[19] = second compound 0.1 µM, first compound 3.16 µM
[20] = second compound 0.1 µM, first compound 10 µM
[21] = second compound 0.316 µM, first compound 0.316 µM
[22] = second compound 0.316 µM, first compound 1 µM
[23] = second compound 0.316 µM, first compound 3.16 µM
[24] = second compound 0.316 µM, first compound 10 µM
[25] = second compound 1 µM, first compound 0.316 µM
[26] = second compound 1 µM, first compound 1 µM
[27] = second compound 1 µM, first compound 3.16 µM
[28] = second compound 1 µM, first compound 10 µM
[29] = second compound 3.16 µM, first compound 0.316 µM
[30] = second compound 3.16 µM, first compound 1 µM
[31] = second compound 3.16 µM, first compound 3.16 µM
[32] = second compound 3.16 µM, first compound 10 µM
[33] = second compound 10 µM, first compound 0.316 µM
[34] = second compound 10 µM, first compound 1 µM
[35] = second compound 10 µM, first compound 3.16 µM
[36] = second compound 10 µM, first compound 10 µM
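Further: spheroids exposed to agents for 7 days before reading.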
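Wherever viability, T/C is given: luminescence signal used as a stand-in for viable cells.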

Which results are given for `Cn1ncnc1[C@H]1c2n[nH]c(=O)c3cc(F)cc(c23)N[C@@H]1c1ccc(F)cc1` + CNC(=O)c1ccc(Nc2nc(OC3CCCC3)c3c(-c4ccc5nc(C)oc5c4)c[nH]c3n2)c(OC)c1?
IC50 (second compound 0.0316 µM): > 100 nM; IC50 (second compound 0.1 µM): < 0.316 nM; IC50 (second compound 0.316 µM): < 0.316 nM; IC50 (second compound 1 µM): < 0.316 nM; IC50 (second compound 3.16 µM): < 0.316 nM; IC50 (second compound 10 µM): < 0.316 nM; viability, T/C (second compound 0.0316 µM, first compound 0.000316 µM): 91.7%; viability, T/C (second compound 0.0316 µM, first compound 0.001 µM): 87.6%; viability, T/C (second compound 0.0316 µM, first compound 0.00316 µM): 61.8%; viability, T/C (second compound 0.0316 µM, first compound 0.01 µM): 56.3%; viability, T/C [1]: 53.6%; viability, T/C [2]: 48.8%; viability, T/C (second compound 0.1 µM, first compound 0.000316 µM): 48.7%; viability, T/C (second compound 0.1 µM, first compound 0.001 µM): 42.7%; viability, T/C (second compound 0.1 µM, first compound 0.00316 µM): 36.5%; viability, T/C (second compound 0.1 µM, first compound 0.01 µM): 39%; viability, T/C [3]: 34.3%; viability, T/C [4]: 28.7%; viability, T/C (second compound 0.316 µM, first compound 0.000316 µM): 16.8%; viability, T/C (second compound 0.316 µM, first compound 0.001 µM): 18.2%; viability, T/C (second compound 0.316 µM, first compound 0.00316 µM): 19.2%; viability, T/C (second compound 0.316 µM, first compound 0.01 µM): 17.4%; viability, T/C [5]: 16%; viability, T/C [6]: 14.9%; viability, T/C (second compound 1 µM, first compound 0.000316 µM): 21.5%; viability, T/C (second compound 1 µM, first compound 0.001 µM): 18.2%; viability, T/C (second compound 1 µM, first compound 0.00316 µM): 17.6%; viability, T/C (second compound 1 µM, first compound 0.01 µM): 15.9%; viability, T/C [7]: 15.6%; viability, T/C [8]: 15.6%; viability, T/C (second compound 3.16 µM, first compound 0.000316 µM): 16.9%; viability, T/C (second compound 3.16 µM, first compound 0.001 µM): 18.6%; viability, T/C (second compound 3.16 µM, first compound 0.00316 µM): 17.3%; viability, T/C (second compound 3.16 µM, first compound 0.01 µM): 20%; viability, T/C [9]: 15.6%; viability, T/C [10]: 15.3%; viability, T/C (second compound 10 µM, first compound 0.000316 µM): 18.7%; viability, T/C (second compound 10 µM, first compound 0.001 µM): 17.5%; viability, T/C (second compound 10 µM, first compound 0.00316 µM): 20.7%; viability, T/C (second compound 10 µM, first compound 0.01 µM): 16.4%; viability, T/C [11]: 18.5%; viability, T/C [12]: 14.8%

For `Nc1ccn(C2OC(CO)C(O)C2(F)F)c(=O)n1` (stereo unspecified) + CNC(=O)c1ccc(Nc2nc(OC3CCCC3)c3c(-c4ccc5nc(C)oc5c4)c[nH]c3n2)c(OC)c1, which IC50 (second compound 0.0316 µM) is on record?
Its IC50 is < 31.6 nM.

And the IC50 (second compound 0.1 µM)?
The IC50 was < 31.6 nM.

What about the IC50 (second compound 0.316 µM) of the same molecule?
The IC50 was < 31.6 nM.

And the IC50 (second compound 1 µM)?
The IC50 was < 31.6 nM.

What about the IC50 (second compound 3.16 µM) of the same molecule?
The IC50 was < 31.6 nM.

And the IC50 (second compound 10 µM)?
Its IC50 is < 31.6 nM.

What about the viability, T/C [1] of the same molecule?
The viability, T/C was 8.18%.

What about the viability, T/C [2] of the same molecule?
The viability, T/C was 3.36%.

What about the viability, T/C [13] of the same molecule?
The viability, T/C was 3.13%.

And the viability, T/C [14]?
The viability, T/C was 2.68%.

What about the viability, T/C [15] of the same molecule?
The viability, T/C was 2.2%.

And the viability, T/C [16]?
Its viability, T/C is 1.72%.

What about the viability, T/C [3] of the same molecule?
The viability, T/C was 6.64%.

What about the viability, T/C [4] of the same molecule?
The viability, T/C was 4.51%.

What about the viability, T/C [17] of the same molecule?
Its viability, T/C is 2.85%.

And the viability, T/C [18]?
The viability, T/C was 2.62%.

And the viability, T/C [19]?
The viability, T/C was 2.66%.

And the viability, T/C [20]?
Its viability, T/C is 2.22%.

And the viability, T/C [5]?
Its viability, T/C is 7.09%.

And the viability, T/C [6]?
The viability, T/C was 3.96%.

And the viability, T/C [21]?
Its viability, T/C is 3.31%.

And the viability, T/C [22]?
Its viability, T/C is 2.62%.

What about the viability, T/C [23] of the same molecule?
The viability, T/C was 2.25%.

What about the viability, T/C [24] of the same molecule?
Its viability, T/C is 1.52%.

And the viability, T/C [7]?
Its viability, T/C is 8.74%.

What about the viability, T/C [8] of the same molecule?
Its viability, T/C is 4.85%.

And the viability, T/C [25]?
The viability, T/C was 4.17%.

And the viability, T/C [26]?
The viability, T/C was 3.63%.

And the viability, T/C [27]?
The viability, T/C was 1.95%.

And the viability, T/C [28]?
Its viability, T/C is 1.24%.

And the viability, T/C [9]?
Its viability, T/C is 8.43%.

What about the viability, T/C [10] of the same molecule?
The viability, T/C was 6.12%.

And the viability, T/C [29]?
Its viability, T/C is 4.34%.

And the viability, T/C [30]?
The viability, T/C was 3.36%.

What about the viability, T/C [31] of the same molecule?
Its viability, T/C is 3.71%.

And the viability, T/C [32]?
The viability, T/C was 1.58%.

What about the viability, T/C [11] of the same molecule?
Its viability, T/C is 9.23%.

What about the viability, T/C [12] of the same molecule?
The viability, T/C was 7.84%.

What about the viability, T/C [33] of the same molecule?
The viability, T/C was 5.26%.

And the viability, T/C [34]?
Its viability, T/C is 3.45%.

And the viability, T/C [35]?
The viability, T/C was 2.47%.

What about the viability, T/C [36] of the same molecule?
The viability, T/C was 1.32%.

With `O=C(c1cc(Cc2n[nH]c(=O)c3ccccc23)ccc1F)N1CCN(C(=O)C2CC2)CC1` + CNC(=O)c1ccc(Nc2nc(OC3CCCC3)c3c(-c4ccc5nc(C)oc5c4)c[nH]c3n2)c(OC)c1 as the molecule, how does the IC50 (second compound 0.0316 µM) read?
Its IC50 is 6380 nM.

And the IC50 (second compound 0.1 µM)?
Its IC50 is 991 nM.

What about the IC50 (second compound 0.316 µM) of the same molecule?
The IC50 was < 31.6 nM.

And the IC50 (second compound 1 µM)?
The IC50 was < 31.6 nM.

And the IC50 (second compound 3.16 µM)?
The IC50 was < 31.6 nM.

What about the IC50 (second compound 10 µM) of the same molecule?
Its IC50 is < 31.6 nM.

And the viability, T/C [1]?
The viability, T/C was 83.7%.

What about the viability, T/C [2] of the same molecule?
Its viability, T/C is 84.7%.

And the viability, T/C [13]?
Its viability, T/C is 78.9%.

And the viability, T/C [14]?
The viability, T/C was 75.9%.

What about the viability, T/C [15] of the same molecule?
The viability, T/C was 64.9%.

And the viability, T/C [16]?
The viability, T/C was 40.3%.

And the viability, T/C [3]?
The viability, T/C was 52.1%.

And the viability, T/C [4]?
Its viability, T/C is 50.2%.

What about the viability, T/C [17] of the same molecule?
The viability, T/C was 57%.

What about the viability, T/C [18] of the same molecule?
The viability, T/C was 49%.

And the viability, T/C [19]?
Its viability, T/C is 38.3%.

And the viability, T/C [20]?
Its viability, T/C is 29.7%.

And the viability, T/C [5]?
Its viability, T/C is 22.3%.

What about the viability, T/C [6] of the same molecule?
Its viability, T/C is 17.4%.

And the viability, T/C [21]?
Its viability, T/C is 20.7%.

What about the viability, T/C [22] of the same molecule?
Its viability, T/C is 17.8%.

What about the viability, T/C [23] of the same molecule?
Its viability, T/C is 15.3%.

What about the viability, T/C [24] of the same molecule?
The viability, T/C was 17.5%.

What about the viability, T/C [7] of the same molecule?
The viability, T/C was 23.3%.

And the viability, T/C [8]?
The viability, T/C was 18.6%.

And the viability, T/C [25]?
Its viability, T/C is 17.9%.

And the viability, T/C [26]?
Its viability, T/C is 21.3%.

What about the viability, T/C [27] of the same molecule?
The viability, T/C was 20%.

And the viability, T/C [28]?
The viability, T/C was 17.4%.

What about the viability, T/C [9] of the same molecule?
Its viability, T/C is 19.6%.

What about the viability, T/C [10] of the same molecule?
Its viability, T/C is 21.1%.

What about the viability, T/C [29] of the same molecule?
Its viability, T/C is 22.2%.

What about the viability, T/C [30] of the same molecule?
Its viability, T/C is 19.4%.

What about the viability, T/C [31] of the same molecule?
Its viability, T/C is 22%.

What about the viability, T/C [32] of the same molecule?
The viability, T/C was 18.4%.

And the viability, T/C [11]?
Its viability, T/C is 18.7%.

And the viability, T/C [12]?
The viability, T/C was 19.8%.

What about the viability, T/C [33] of the same molecule?
The viability, T/C was 21.8%.

And the viability, T/C [34]?
The viability, T/C was 19.8%.

What about the viability, T/C [35] of the same molecule?
The viability, T/C was 18.9%.

And the viability, T/C [36]?
Its viability, T/C is 15.2%.
